Assay results published in patent US20070275961A1, “Triazolo ' 1, 5-A ! Pyrimidines and Their Use in Medicine” (VERNALIS (CAMBRIDGE) LIMITED., priority 2003, published 2007).
Read-outs that look alike come from different tables or passages of the source.

How the values were obtained:
Format in all cases: biochemical
[1] = biological target: CDK2 enzyme, complexed with cyclin A (Homo sapiens, UniProt P24941); assay: CDK2 cyclin dependent kinase assay, phosphorylation of synthetic peptide […] (33P-ATP filtration); details: Table 1; 0.1 mM ATP
Experimental: (§1) The assay mixture containing the inhibitor and CDK2 enzyme, complexed with cyclin A (0.4 U/ml) was mixed together in a microtiter plate in a final volume of 50 μl and incubated for 40 min at 30° C. The assay mixture contained 0.1 mM unlabeled ATP, 0.01 μCi/μl ^33P-γ-ATP, 0.03 mM peptide, 0.1 mg/ml BSA, 7.5 mM magnesium acetate, 50 mM HEPES-NaOH, pH 7.5. The reaction was stopped by adding 50 μl of 50 mM phosphoric acid. 90 μl of the mixture were transferred to a pre-wetted 96-well Multiscreen MAPHNOB filtration plate (Millipore) and filtered on a vacuum manifold. The filter plate was washed with three successive additions of 200 μl 50 mM phosphoric acid and then with 100 μl methanol. The filtration plate was dried for 10 min at 65° C., scintillant added and phosphorylated peptide quantified in a scintillation counter (Trilux, PerkinElmer).
HEPES is N-[2-hydroxyethyl]piperazine-N′-[2-ethanesulfonic acid]. BSA is bovine serum albumin.

PDK1 enzyme = biological target: T1, PDK1 enzyme (Homo sapiens, UniProt O15530); assay: PDK1 3'-phosphoinositide-dependent kinase assay, phosphorylation of synthetic peptide (33P-ATP filtration)
T1 sequence (O15530 1-556): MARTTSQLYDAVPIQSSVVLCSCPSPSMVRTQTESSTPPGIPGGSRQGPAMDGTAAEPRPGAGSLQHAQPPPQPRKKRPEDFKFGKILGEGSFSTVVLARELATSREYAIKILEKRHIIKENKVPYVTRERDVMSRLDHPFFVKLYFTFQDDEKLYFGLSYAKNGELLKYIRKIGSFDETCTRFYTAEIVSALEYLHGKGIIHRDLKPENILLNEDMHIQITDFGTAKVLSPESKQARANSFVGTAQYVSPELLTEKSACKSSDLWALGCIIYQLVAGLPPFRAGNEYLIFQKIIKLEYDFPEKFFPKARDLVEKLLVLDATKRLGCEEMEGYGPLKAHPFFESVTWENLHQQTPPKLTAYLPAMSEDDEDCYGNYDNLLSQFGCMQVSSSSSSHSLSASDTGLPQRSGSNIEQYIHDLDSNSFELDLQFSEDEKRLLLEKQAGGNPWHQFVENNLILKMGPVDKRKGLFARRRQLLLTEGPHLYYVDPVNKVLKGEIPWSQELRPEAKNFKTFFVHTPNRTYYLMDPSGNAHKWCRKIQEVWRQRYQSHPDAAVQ
Experimental: as §1, with “and PDK1 enzyme” for “and CDK2 enzyme, complexed with cyclin A (0.4 U/ml)”, “for 60” for “for 40”, “contained 0.01” for “contained 0.1”, “^33P-γ-ATP, 0.075” for “^33P-γ-ATP, 0.03”, “acetate, 0.05 M Tris.HCl,” for “acetate, 50 mM HEPES-NaOH,”, “pH 7.5, 0.5% 2-mercaptoethanol.” for “pH 7.5.”

Chk1 = biological target: T2, Chk1 (Homo sapiens, UniProt O14757); assay: Chk1 kinase assay, phosphorylation of Chktide (33P-ATP filtration)
T2 sequence (O14757 1-476): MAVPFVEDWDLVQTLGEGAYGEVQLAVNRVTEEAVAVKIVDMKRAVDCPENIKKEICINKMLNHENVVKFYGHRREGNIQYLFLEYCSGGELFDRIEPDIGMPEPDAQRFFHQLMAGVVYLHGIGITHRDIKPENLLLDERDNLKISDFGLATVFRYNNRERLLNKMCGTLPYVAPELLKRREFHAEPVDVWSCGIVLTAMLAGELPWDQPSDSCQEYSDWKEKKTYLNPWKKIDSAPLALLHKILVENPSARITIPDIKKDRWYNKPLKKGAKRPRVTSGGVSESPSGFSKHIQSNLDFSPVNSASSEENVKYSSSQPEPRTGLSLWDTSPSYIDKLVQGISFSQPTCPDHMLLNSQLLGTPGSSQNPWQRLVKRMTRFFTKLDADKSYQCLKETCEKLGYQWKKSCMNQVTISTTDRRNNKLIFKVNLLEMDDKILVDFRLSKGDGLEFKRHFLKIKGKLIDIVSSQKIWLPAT
Experimental: Assays for the Chk1 kinase activity were carried out by monitoring the phosphorylation of a synthetic peptide Chktide with the amino acid sequence, […]. The assay mixture containing the inhibitor and Chk1 enzyme was mixed together in a microtiter plate in a final volume of 50 μl and incubated for 40 minutes at 30° C.
The assay mixture contained 0.01 mM unlabeled ATP, 0.5 μCi ^33P-γ-ATP, 30 μM Chktide, 0.1 mg/ml BSA, 50 mM Hepes-NaOH pH 7.5 and 11 nM GST-Chk1 enzyme. The reaction was stopped by adding 50 μl of 50 mM phosphoric acid. 90 μl of the mixture was transferred to a pre-wetted 96-well Multiscreen MAPHNOB filtration plate (Millipore) and filtered on a vacuum manifold. The filter plate was washed with three successive additions of 200 μl 50 mM phosphoric acid and then with 100 μl methanol. The filtration plate was dried for 10 min at 65° C., scintillant added and phosphorylated peptide quantified in a scintillation counter (Trilux, PerkinElmer).

[2] = Table 1, 0.01 mM ATP, read-out: PDK1 IC50
[3] = Table 1, 0.01 mM ATP, read-out: Chk1 IC50
[4] = Table 4, 0.01 mM ATP, read-out: PDK1 IC50
[5] = Table 4, 0.01 mM ATP, read-out: Chk1 IC50

Structure (SMILES)	IC50 [1] [µM]	IC50 (PDK1 enzyme; [2]) [µM]	IC50 (Chk1; [3]) [µM]	IC50 (PDK1 enzyme; [4]) [µM]	IC50 (Chk1; [5]) [µM]	further results
NS(=O)(=O)c1ccc(Nc2cc(Cl)nc3ncnn23)cc1 [Example 1, 7-(4-Aminosulfonylphenylamino)-5-chlorotriazolol[1,5-a]pyrimidine]	20.1	> 200	> 200			
NS(=O)(=O)c1ccc(Nc2cc(OC3CCCCC3)nc3ncnn23)cc1 [Example 2, 7-(4-Aminosulfonylphenylamino)-5-cyclohexyloxytriazolo[1,5-a]pyrimidine]		> 200	> 200			
Cc1cccc(-c2cc(Nc3ccc(S(N)(=O)=O)cc3)n3ncnc3n2)c1 [Example 3, 7-(4-Aminosulfonylphenylamino)-5-(3-methylphenyl)triazolo[1,5-a]pyrimidine]	1.82	> 200	> 200			
CCN(CC)c1cc(Nc2ccc(S(N)(=O)=O)cc2)n2ncnc2n1 [Example 4, 4-(5-Diethylamino-[1,2,4]triazolo[1,5-a]pyrimidine-7-ylamino)-benzenesulfonamide]	0.39	> 200	> 200			
C[C@H]1CCCC(Oc2cc(Nc3ccc(S(N)(=O)=O)cc3)n3ncnc3n2)C1 (some centres unmarked) [Example 5]	6.4	> 200	> 200			
Clc1cc(NCc2ccccc2)n2ncnc2n1 [Example 6]	85	> 200	> 200			
O=S(=O)(c1ccc(Nc2cc(Cl)nc3ncnn23)cc1)N1CCC(O)CC1 [Example 7]	22.7	> 200	> 200			
CN(C)S(=O)(=O)c1ccc(Nc2cc(Cl)nc3ncnn23)cc1 [Example 8]	48.2	> 200	> 200			
CC(C)Nc1cc(Nc2ccc(S(N)(=O)=O)cc2)n2ncnc2n1 [Example 9]	0.89	> 200	> 200			
NS(=O)(=O)c1ccc(Nc2cc(NC(CCO)c3ccccc3)nc3ncnn23)cc1 (centres unmarked) [Example 10]	5.74	> 200	> 200			
NS(=O)(=O)c1ccc(Nc2cc(NC3CCCC3)nc3ncnn23)cc1 [Example 11]	0.55	> 200	> 200			
CCOc1cc(Nc2ccc(S(N)(=O)=O)cc2)n2ncnc2n1 [Example 12]	13	> 200	> 200			
NS(=O)(=O)c1ccc(Nc2cc(Oc3ccccc3)nc3ncnn23)cc1 [Example 13]	20.1	> 200	> 200			
CC(C)COc1cc(Nc2ccc(S(N)(=O)=O)cc2)n2ncnc2n1 [Example 14]	1.85	> 200	> 200			
NS(=O)(=O)c1ccc(CNc2cc(OC3CCCCC3)nc3ncnn23)cc1 [Example 15]	11.3	> 200	> 200			
COc1ccc(Br)cc1-c1cc(N[C@H]2CC[C@H](O)CC2)n2ncnc2n1 [Example 16]	48	> 200	> 200			
O=S(=O)(c1ccc(Nc2cc(Cl)nc3ncnn23)cc1)N1CCOCC1 [Example 17]	16.7	> 200	> 200			
NS(=O)(=O)c1ccc(Nc2cc(N[C@H]3CC[C@H](N)CC3)nc3ncnn23)cc1 [Example 36]		43.3	93.5			
NS(=O)(=O)c1ccc(Nc2cc(NC3CCCCC3)nc3ncnn23)cc1 [Example 37]		64	> 200			
NS(=O)(=O)c1ccc(Nc2cc(OCC3CCCCC3)nc3ncnn23)cc1 [Example 51]		> 200	> 200			
Brc1cccc(-c2cc(NCc3ccncc3)n3ncnc3n2)c1 [Example 55]						IC50 (PDK1 enzyme): > 200 µM; IC50 (Chk1): > 200 µM
CCN(CC)c1cc(NCC2CCNCC2)n2ncnc2n1 [Example 86]						IC50 (PDK1 enzyme; Table 2, 0.01 mM ATP, read-out: PDK1 IC50): > 200 µM; IC50 (Chk1; Table 2, 0.01 mM ATP, read-out: Chk1 IC50): > 200 µM
NC(=O)c1ccc(Nc2cc(-c3cccc(O)c3)n3ncnc3n2)cc1 [Example 142]				4.66	3.92	
NC(=O)Cc1ccc(Nc2cc(-c3ccc4c(c3)OCO4)n3ncnc3n2)cc1 [Example 143]				11.4	4.71	

The next lines start with results.

IC50 [1] [µM]	IC50 (PDK1 enzyme; [2]) [µM]	IC50 (Chk1; [3]) [µM]	IC50 (PDK1 enzyme; [4]) [µM]	IC50 (Chk1; [5]) [µM]	Structure (SMILES)	further results
			12.2	68.3	CCOc1cccc(-c2cc(Nc3ccc(C(N)=O)cc3)nc3ncnn23)c1 [Example 144]	
			14.6	19.7	NC(=O)c1ccc(Nc2cc(-c3cccc(OCC4CCNCC4)c3)n3ncnc3n2)cc1 [Example 150]	
			13.4	32.7	Fc1cccc(-c2cc(Nc3cccc(Oc4ccccc4)c3)nc3ncnn23)c1 [Example 152]	
			12	24.7	Fc1cccc(-c2cc(Nc3ccc(Oc4ccccc4)cc3)nc3ncnn23)c1 [Example 153]	
			12.6	15.1	Fc1cccc(-c2cc(Nc3ccc(Sc4ccccc4)cc3)nc3ncnn23)c1 [Example 155]	
			7.94	13	O=S(=O)(Nc1nccs1)c1ccc(Nc2cc(-c3cccc(F)c3)n3ncnc3n2)cc1 [Example 156]	
			10.5	6.75	CN(C)c1ccc(Nc2cc(-c3cccc(F)c3)n3ncnc3n2)cc1 [Example 158]	
			7.66	22.6	CNS(=O)(=O)Cc1ccc(Nc2cc(-c3cccc(F)c3)n3ncnc3n2)cc1 [Example 159]	
			1.32	15.8	CCCc1cc(OC)cc(-c2cc(Nc3ccc(C(N)=O)cc3)nc3ncnn23)c1 [Example 160]	
			1.66	9.04	CCCc1cc(OCCN)cc(-c2cc(Nc3ccc(C(N)=O)cc3)nc3ncnn23)c1 [Example 161]	
			7.34	31.7	CCCc1cc(OCCN(C)C)cc(-c2cc(Nc3ccc(C(N)=O)cc3)nc3ncnn23)c1 [Example 162]	
			5.44	9.82	CN(C)CCOc1cccc(-c2cc(Nc3ccc(C(N)=O)cc3)nc3ncnn23)c1 [Example 163]	
			1.6	0.66	CCc1cc(O)cc(-c2cc(Nc3ccc(C(=O)NCCN(CC)CC)cc3)nc3ncnn23)c1 [Example 164]	
			3.99	3.39	CCc1cc(OCCN)cc(-c2cc(Nc3ccc(C(=O)NCCN(CC)CC)cc3)nc3ncnn23)c1 [Example 167]	
